Reference: the NIST ThermoML archive (doi:10.1021/acs.jced.7b01006)
± gives the expanded uncertainty stated by the source.

Experiment: xn = mol fraction of the nth substance listed
Conditions: 100 kPa, Liquid; for electrical conductivity: Alternating current cell with electrodes; for viscosity: Falling or rolling sphere viscometry; for mass density: Vibrating tube method

With `CCC[n+]1ccn(C)c1C.N#C[S-]` [1,2-dimethyl-3-propylimidazolium thiocyanate] + CC#N the electrical conductivity (308.15 K, x1 = 0.1002) was 6.49 ± 0.65 S/m, the electrical conductivity (308.15 K, x1 = 0.2002) was 5.83 ± 0.58 S/m and the electrical conductivity (308.15 K, x1 = 0.2998) was 5.16 ± 0.52 S/m. The electrical conductivity (308.15 K, x1 = 0.4001) was 3.77 ± 0.38 S/m, the electrical conductivity (308.15 K, x1 = 0.4997) was 2.35 ± 0.23 S/m and the electrical conductivity (308.15 K, x1 = 0.5998) was 1.98 ± 0.2 S/m. It also gave an electrical conductivity (308.15 K, x1 = 0.7002) of 1.59 ± 0.16 S/m, an electrical conductivity (308.15 K, x1 = 0.7999) of 1.18 ± 0.12 S/m and an electrical conductivity (308.15 K, x1 = 0.8999) of 0.874 ± 0.087 S/m. The electrical conductivity (308.15 K, x1 = 1) was 0.733 ± 0.073 S/m, the viscosity (308.15 K, x1 = 0.1002) was 1.998 ± 0.028 mPa·s and the viscosity (308.15 K, x1 = 0.2002) was 4.904 ± 0.07 mPa·s. The viscosity (308.15 K, x1 = 0.2998) was 9.381 ± 0.14 mPa·s, the viscosity (308.15 K, x1 = 0.4001) was 15.33 ± 0.23 mPa·s and the viscosity (308.15 K, x1 = 0.4997) was 22.87 ± 0.36 mPa·s. For the same compound, the viscosity (308.15 K, x1 = 0.5998) was 32.68 ± 0.54 mPa·s, the viscosity (308.15 K, x1 = 0.7002) was 43.59 ± 0.75 mPa·s and the viscosity (308.15 K, x1 = 0.7999) was 55.98 ± 0.94 mPa·s. For the same compound, the viscosity (308.15 K, x1 = 0.8999) was 69.61 ± 1.4 mPa·s, the viscosity (308.15 K, x1 = 1) was 83.42 ± 2 mPa·s and the mass density (308.15 K, x1 = 0.1002) was 867.37 ± 2 kg/m3. For the same compound, the mass density (308.15 K, x1 = 0.2002) was 934.26 ± 2 kg/m3, the mass density (308.15 K, x1 = 0.2998) was 981.65 ± 2.1 kg/m3 and the mass density (308.15 K, x1 = 0.4001) was 1016.47 ± 2.1 kg/m3. The mass density (308.15 K, x1 = 0.4997) was 1040.37 ± 2.2 kg/m3, the mass density (308.15 K, x1 = 0.5998) was 1055.91 ± 2.3 kg/m3 and the mass density (308.15 K, x1 = 0.7002) was 1066.65 ± 2.4 kg/m3. The mass density (308.15 K, x1 = 0.7999) was 1075.33 ± 2.5 kg/m3, the mass density (308.15 K, x1 = 0.8999) was 1082.59 ± 2.7 kg/m3 and the mass density (308.15 K, x1 = 1) was 1087.57 ± 2.9 kg/m3. For the same compound, the electrical conductivity (313.15 K, x1 = 0.1002) was 6.81 ± 0.68 S/m, the electrical conductivity (313.15 K, x1 = 0.2002) was 6.22 ± 0.62 S/m and the electrical conductivity (313.15 K, x1 = 0.2998) was 5.62 ± 0.56 S/m. The electrical conductivity (313.15 K, x1 = 0.4001) was 4.18 ± 0.42 S/m, the electrical conductivity (313.15 K, x1 = 0.4997) was 2.71 ± 0.27 S/m and the electrical conductivity (313.15 K, x1 = 0.5998) was 2.31 ± 0.23 S/m. The electrical conductivity (313.15 K, x1 = 0.7002) was 1.88 ± 0.19 S/m, the electrical conductivity (313.15 K, x1 = 0.7999) was 1.42 ± 0.14 S/m and the electrical conductivity (313.15 K, x1 = 0.8999) was 1.06 ± 0.11 S/m. For the same compound, the electrical conductivity (313.15 K, x1 = 1) was 0.905 ± 0.091 S/m, the viscosity (313.15 K, x1 = 0.1002) was 1.461 ± 0.02 mPa·s and the viscosity (313.15 K, x1 = 0.2002) was 3.715 ± 0.053 mPa·s. The viscosity (313.15 K, x1 = 0.2998) was 7.289 ± 0.11 mPa·s, the viscosity (313.15 K, x1 = 0.4001) was 11.81 ± 0.18 mPa·s and the viscosity (313.15 K, x1 = 0.4997) was 17.46 ± 0.28 mPa·s. The viscosity (313.15 K, x1 = 0.5998) was 24.53 ± 0.41 mPa·s, the viscosity (313.15 K, x1 = 0.7002) was 32.94 ± 0.57 mPa·s and the viscosity (313.15 K, x1 = 0.7999) was 42.28 ± 0.76 mPa·s. For the same compound, the viscosity (313.15 K, x1 = 0.8999) was 53.18 ± 0.92 mPa·s, the viscosity (313.15 K, x1 = 1) was 64.78 ± 1.3 mPa·s and the mass density (313.15 K, x1 = 0.1002) was 862.96 ± 2 kg/m3. It also gave a mass density (313.15 K, x1 = 0.2002) of 930.69 ± 2 kg/m3, a mass density (313.15 K, x1 = 0.2998) of 978.11 ± 2.1 kg/m3 and a mass density (313.15 K, x1 = 0.4001) of 1013.36 ± 2.1 kg/m3. For the same compound, the mass density (313.15 K, x1 = 0.4997) was 1037.38 ± 2.2 kg/m3, the mass density (313.15 K, x1 = 0.5998) was 1053.06 ± 2.2 kg/m3 and the mass density (313.15 K, x1 = 0.7002) was 1063.86 ± 2.4 kg/m3. For the same compound, the mass density (313.15 K, x1 = 0.7999) was 1072.65 ± 2.5 kg/m3, the mass density (313.15 K, x1 = 0.8999) was 1079.86 ± 2.7 kg/m3 and the mass density (313.15 K, x1 = 1) was 1084.55 ± 2.9 kg/m3. It also gave an electrical conductivity (318.15 K, x1 = 0.1002) of 7.13 ± 0.71 S/m, an electrical conductivity (318.15 K, x1 = 0.2002) of 6.61 ± 0.66 S/m and an electrical conductivity (318.15 K, x1 = 0.2998) of 6.1 ± 0.61 S/m. It also gave an electrical conductivity (318.15 K, x1 = 0.4001) of 4.61 ± 0.46 S/m, an electrical conductivity (318.15 K, x1 = 0.4997) of 3.11 ± 0.31 S/m and an electrical conductivity (318.15 K, x1 = 0.5998) of 2.67 ± 0.27 S/m. It also gave an electrical conductivity (318.15 K, x1 = 0.7002) of 2.22 ± 0.22 S/m, an electrical conductivity (318.15 K, x1 = 0.7999) of 1.69 ± 0.17 S/m and an electrical conductivity (318.15 K, x1 = 0.8999) of 1.26 ± 0.13 S/m. The electrical conductivity (318.15 K, x1 = 1) was 1.1 ± 0.11 S/m, the viscosity (318.15 K, x1 = 0.1002) was 1.077 ± 0.015 mPa·s and the viscosity (318.15 K, x1 = 0.2002) was 2.907 ± 0.041 mPa·s. The viscosity (318.15 K, x1 = 0.2998) was 5.635 ± 0.083 mPa·s, the viscosity (318.15 K, x1 = 0.4001) was 9.215 ± 0.14 mPa·s and the viscosity (318.15 K, x1 = 0.4997) was 13.52 ± 0.21 mPa·s. It also gave a viscosity (318.15 K, x1 = 0.5998) of 18.99 ± 0.31 mPa·s, a viscosity (318.15 K, x1 = 0.7002) of 25.5 ± 0.4 mPa·s and a viscosity (318.15 K, x1 = 0.7999) of 32.82 ± 0.59 mPa·s. It also gave a viscosity (318.15 K, x1 = 0.8999) of 41.2 ± 0.77 mPa·s, a viscosity (318.15 K, x1 = 1) of 50.96 ± 0.92 mPa·s and a mass density (318.15 K, x1 = 0.1002) of 858.59 ± 2 kg/m3. It also gave a mass density (318.15 K, x1 = 0.2002) of 927.1 ± 2 kg/m3, a mass density (318.15 K, x1 = 0.2998) of 974.43 ± 2.1 kg/m3 and a mass density (318.15 K, x1 = 0.4001) of 1010.2 ± 2.1 kg/m3. For the same compound, the mass density (318.15 K, x1 = 0.4997) was 1034.36 ± 2.2 kg/m3, the mass density (318.15 K, x1 = 0.5998) was 1050.24 ± 2.2 kg/m3 and the mass density (318.15 K, x1 = 0.7002) was 1060.96 ± 2.4 kg/m3. It also gave a mass density (318.15 K, x1 = 0.7999) of 1069.97 ± 2.5 kg/m3, a mass density (318.15 K, x1 = 0.8999) of 1077.03 ± 2.7 kg/m3 and a mass density (318.15 K, x1 = 1) of 1081.54 ± 2.9 kg/m3. For the same compound, the electrical conductivity (323.15 K, x1 = 0.1002) was 7.45 ± 0.75 S/m, the electrical conductivity (323.15 K, x1 = 0.2002) was 7.01 ± 0.7 S/m and the electrical conductivity (323.15 K, x1 = 0.2998) was 6.58 ± 0.66 S/m. The electrical conductivity (323.15 K, x1 = 0.4001) was 5.05 ± 0.51 S/m, the electrical conductivity (323.15 K, x1 = 0.4997) was 3.52 ± 0.35 S/m and the electrical conductivity (323.15 K, x1 = 0.5998) was 3.08 ± 0.31 S/m. It also gave an electrical conductivity (323.15 K, x1 = 0.7002) of 2.6 ± 0.26 S/m, an electrical conductivity (323.15 K, x1 = 0.7999) of 2 ± 0.2 S/m and an electrical conductivity (323.15 K, x1 = 0.8999) of 1.5 ± 0.15 S/m. The electrical conductivity (323.15 K, x1 = 1) was 1.33 ± 0.13 S/m, the viscosity (323.15 K, x1 = 0.1002) was 0.775 ± 0.011 mPa·s and the viscosity (323.15 K, x1 = 0.2002) was 2.285 ± 0.033 mPa·s. It also gave a viscosity (323.15 K, x1 = 0.2998) of 4.456 ± 0.066 mPa·s, a viscosity (323.15 K, x1 = 0.4001) of 7.216 ± 0.11 mPa·s and a viscosity (323.15 K, x1 = 0.4997) of 10.53 ± 0.17 mPa·s. It also gave a viscosity (323.15 K, x1 = 0.5998) of 14.68 ± 0.24 mPa·s, a viscosity (323.15 K, x1 = 0.7002) of 19.99 ± 0.34 mPa·s and a viscosity (323.15 K, x1 = 0.7999) of 25.88 ± 0.46 mPa·s. It also gave a viscosity (323.15 K, x1 = 0.8999) of 33.37 ± 0.62 mPa·s, a viscosity (323.15 K, x1 = 1) of 41.55 ± 0.81 mPa·s and a mass density (323.15 K, x1 = 0.1002) of 854.24 ± 2 kg/m3. The mass density (323.15 K, x1 = 0.2002) was 923.56 ± 2 kg/m3, the mass density (323.15 K, x1 = 0.2998) was 970.89 ± 2.1 kg/m3 and the mass density (323.15 K, x1 = 0.4001) was 1006.99 ± 2.1 kg/m3. It also gave a mass density (323.15 K, x1 = 0.4997) of 1031.23 ± 2.2 kg/m3, a mass density (323.15 K, x1 = 0.5998) of 1047.39 ± 2.2 kg/m3 and a mass density (323.15 K, x1 = 0.7002) of 1060 ± 2.4 kg/m3. It also gave a mass density (323.15 K, x1 = 0.7999) of 1070 ± 2.5 kg/m3, a mass density (323.15 K, x1 = 0.8999) of 1074.33 ± 2.7 kg/m3 and a mass density (323.15 K, x1 = 1) of 1078.54 ± 2.8 kg/m3.
